Patent publication US20200113816A1, “REACTIONS TRIGGERED BY COOLING-INDUCED GEL-TO-SOL TRANSITION OF THERMORESPONSIVE POLYMERS” (Vanderbilt University, priority 2018, published 2020)

System: Sprague-Dawley rats
Test: Neurobehavioral testing of nerve block, cooling-triggered local anesthesia
Type: in vivo
Conditions: injected, 15 mg/mL in sterile saline
Description: Nile Red- or bupivacaine-loaded gels are implanted in adult Sprague-Dawley rats alongside a wireless temperature probe. Stability are characterized using dye-loaded formulations, with animals imaged daily to determine the extent to which the dye leaks from the gelled implant; quantitative data are derived from depletion of the Nile Red fluorescence signal. To characterize release, rats implanted with dye-loaded formulations are subjected to a cooling stimulus (ice applied to the skin while tissue temperature is remotely monitored), and subsequently imaged to determine the extent to which cooling triggers release of the sequestered compound in vivo as observed by decrease in the depot fluorescence intensity. Multiple cycles of cooling are performed (with a 24-hour recovery period between cycles) until no significant change in the fluorescence signal from the depot is observed. […] The difference between the duration of nerve blocks due to injection of bupivacaine solution and the duration of blocks caused by cooling-triggered release from an implanted device is determined. To investigate tissue response to the implanted devices, after the animals are sacrificed the tissue surrounding the sciatic nerve is removed, processed for histology (H&E staining), and analyzed via optical microscopy.

CCCCN1CCCCC1C(=O)Nc1c(C)cccc1C (stereo not shown) [bupivacaine]
baseline nerve block duration: ~200 min
